Experimental data published in patent US6916933B2, “4-pyridinyl-n-acyl-l-phenylalanines” (Hoffman-La Roche Inc., priority 1999, dated 2005).

Assays:
[1] = biological target: T1, cell-surface VLA-4 (α4β1 integrin) on Ramos cells binding to immobilized VCAM-1 (Homo sapiens, UniProt P05556+P13612); assay: Ramos (VLA-4)/VCAM-1 Cell-Based Screening Assay (cell adhesion); details: Calcein-AM labeled Ramos cells, VCAM-1 coated plates
T1 construct: Ramos cells bearing cell-surface VLA-4; endogenous in cells; host or cells: Ramos cells (VLA-4); VCAM-1 partner made in CHO cells
Protocol: Ramos (VLA-4)/VCAM-1 Cell-Based Screening Assay Protocol
Soluble recombinant human VCAM-1 (mixture of 5- and 7-Ig domain) was purified from CHO cell culture media by immunoaffinity chromatography and maintained in a solution containing 0.1 M Tris-glycine (pH 7.5), 0.1 M NaCl, 5 mM EDTA, 1 mM PMSF, […] NaN3 and 10 μg/mL leupeptin. Calcein-AM was purchased from Molecular Probes Inc.
VLA-4 (α4β1 integrin) antagonist activity, defined as ability to compete with cell-surface VLA-4 for binding to immobilized VCAM-1, was quantitated using a Ramos-VCAM-1 cell adhesion assay. Ramos cells bearing cell-surface VLA-4, were labeled with a fluorescent dye (Calcein-AM) and allowed to bind VCAM-1 in the presence or absence of test compounds. A reduction in fluorescence intensity associated with adherent cells (% inhibition) reflected competitive inhibition of VLA-4 mediated cell adhesion by the test compound.
Initially, this entailed coating 96 well plates (Nunc Maxisorp) with recombinant human VCAM-1 (100 ng in 100 μl PBS), sealing each plate and allowing the plates to stand at 4° C. for ≈18 hr. The VCAM-coated plates were subsequently washed twice with 0.05% Tween-20 in PBS, and then blocked for 1 hr (room temperature) with 200 μl of Blocking Buffer (1% BSA/0.02% thimerosal) to reduce non-specific binding. Following the incubation with Blocking Buffer, plates were inverted, blotted and the remaining buffer aspirated. Each plate was then washed with 300 μl PBS, inverted and the remaining PBS aspirated.
Test compounds were dissolved in 100% DMSO and then diluted 1:25 in VCAM Cell Adhesion Assay Buffer (4 mM CaCl2, 4 mM MgCl2 in 50 mM TRIS-HCl, pH 7.5) (final DMSO=4%). A series of eight 1:4 dilutions were performed for each compound (general concentration range of 1 nM-12,500 nM). 100 μl/well of each dilution was added to the VCAM-coated plates, followed by 100 μl of Ramos cells (200,000 cells/well in 1% BSA/PBS). Plates containing test compounds and Ramos cells were allowed to incubate for 45 min at room temperature, after which 165 μl/well PBS was added. Plates were inverted to remove non-adherent cells, blotted and 300 μL/well PBS added. Plates were again inverted, blotted and the remaining buffer gently aspirated. 100 μl Lysis Buffer (0.1% SDS in 50 mM TRIS-HCl, pH 8.5) was added to each well and agitated for 2 min on a rotary shaking platform. The plates were then read for fluorescence intensity on a Cytofluor 2300 (Millipore) fluorecence measurement system (excitation=485 nm, emission=530 nm).
The results are provided in the following Table II (A=IC50<100 nM, B=IC50<10000 nM, C=IC50<5,000 nM): […]

[2] = biological target: T2, VLA-4 (α4β1 integrin) binding to immobilized VCAM-1 (Homo sapiens, UniProt P05556+P13612); assay: VLA-4/VCAM-1 Screening Assay (solid-phase, dual antibody ELISA); details: Ramos cell-derived VLA-4, recombinant human VCAM-1 coated plates, 1 mM MnCl2
T2 construct: followed by 10 μl of Ramos cell-derived VLA-4; endogenous in cells; host or cells: Ramos cells (VLA-4 preparation derived from the cells)
Protocol: VLA-4/VCAM-1 Screening Assay
VLA-4 antagonist activity, defined as ability to compete for binding to immobilized VCAM-1, was quantitated using a solid-phase, dual antibody ELISA. VLA-4 (α4β1 integrin) bound to VCAM-1 was detected by a complex of anti-integrin β1 antibody: HRP-conjugated anti-mouse IgG: chromogenic substrate (K-Blue). Initially, this entailed coating 96 well plates (Nunc Maxisorp) with recombinant human VCAM-1 (0.4 μg in 100 μl PBS), sealing each plate and then allowing the plates to stand at 4° C. for ^˜18 hr. […] On the day of assay, all plates were washed twice with VCAM Assay Buffer (200 μl/well of 50 mM Tris-HCl, 100 mM NaCl, 1 mM MnCl2, 0.05% Tween 20; pH 7.4). Test compounds were dissolved in 100% DMSO and then diluted 1:20 in VCAM Assay Buffer supplemented with 1 mg/mL BSA (i.e., final DMSO=5%). A series of 1:4 dilutions were performed to achieve a concentration range of 0.005 nM-1.563 μM for each test compound. 100 μl per well of each dilution was added to the VCAM-coated plates, followed by 10 μl of Ramos cell-derived VLA-4. These plates were sequentially mixed on a platform shaker for 1 min, incubated for 2 hr at 37° C., and then washed four times with 200 μl/well VCAM Assay Buffer. 100 μl of mouse anti-human integrin β1 antibody was added to each well (0.6 μg/mL in VCAM Assay Buffer+1 mg/mL BSA) and allowed to incubate for 1 hr at 37° C. At the conclusion of this incubation period, all plates were washed four times with VCAM Assay Buffer (200 μl/well). A corresponding second antibody, HRP-conjugated goat anti-mouse IgG (100 μl per well @ 1:800 dilution in VCAM Assay Buffer+1 mg/mL BSA), was then added to each well, followed by a 1 hr incubation at room temperature and concluded by three washes (200 μl/well) with VCAM Assay Buffer. Color development was initiated by addition of 100 μl K-Blue per well (15 min incubation, room temp) and terminated by addition of 100 μl Red Stop Buffer per well. All plates were then read in a UV/V is spectrophotometer at 650 nM. Results were calculated as % inhibition of total binding (i.e., VLA-4+VCAM-1 in the absence of test compound).
The results are provided in the following Table I (A=IC50<1 nM, B=IC50<10 nM): […]

T2 sequence (P13612 34-1032): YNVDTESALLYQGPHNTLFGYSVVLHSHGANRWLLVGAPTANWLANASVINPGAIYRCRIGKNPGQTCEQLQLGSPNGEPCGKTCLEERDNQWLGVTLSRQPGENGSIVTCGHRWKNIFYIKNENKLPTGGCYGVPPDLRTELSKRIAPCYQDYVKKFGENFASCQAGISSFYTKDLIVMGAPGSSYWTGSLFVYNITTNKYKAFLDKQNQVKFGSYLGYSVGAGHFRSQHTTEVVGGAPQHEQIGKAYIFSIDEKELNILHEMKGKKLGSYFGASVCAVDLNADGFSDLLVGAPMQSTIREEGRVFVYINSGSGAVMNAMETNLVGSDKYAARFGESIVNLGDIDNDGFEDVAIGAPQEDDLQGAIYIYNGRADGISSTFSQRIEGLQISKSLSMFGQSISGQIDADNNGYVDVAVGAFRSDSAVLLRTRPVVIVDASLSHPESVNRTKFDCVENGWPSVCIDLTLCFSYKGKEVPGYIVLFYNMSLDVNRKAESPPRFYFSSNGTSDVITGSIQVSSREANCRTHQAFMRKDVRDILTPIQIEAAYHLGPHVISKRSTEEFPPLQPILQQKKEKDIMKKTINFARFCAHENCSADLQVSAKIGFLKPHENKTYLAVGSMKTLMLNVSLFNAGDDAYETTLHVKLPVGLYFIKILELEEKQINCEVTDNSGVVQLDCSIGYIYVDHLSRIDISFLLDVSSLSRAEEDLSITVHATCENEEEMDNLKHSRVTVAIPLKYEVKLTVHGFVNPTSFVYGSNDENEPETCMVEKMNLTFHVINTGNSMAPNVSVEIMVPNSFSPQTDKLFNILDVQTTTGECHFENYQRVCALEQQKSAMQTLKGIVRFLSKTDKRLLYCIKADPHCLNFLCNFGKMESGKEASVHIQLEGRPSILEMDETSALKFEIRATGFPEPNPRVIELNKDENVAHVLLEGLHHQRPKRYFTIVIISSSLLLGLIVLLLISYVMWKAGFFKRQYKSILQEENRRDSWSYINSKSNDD
T2 sequence (P05556 21-798): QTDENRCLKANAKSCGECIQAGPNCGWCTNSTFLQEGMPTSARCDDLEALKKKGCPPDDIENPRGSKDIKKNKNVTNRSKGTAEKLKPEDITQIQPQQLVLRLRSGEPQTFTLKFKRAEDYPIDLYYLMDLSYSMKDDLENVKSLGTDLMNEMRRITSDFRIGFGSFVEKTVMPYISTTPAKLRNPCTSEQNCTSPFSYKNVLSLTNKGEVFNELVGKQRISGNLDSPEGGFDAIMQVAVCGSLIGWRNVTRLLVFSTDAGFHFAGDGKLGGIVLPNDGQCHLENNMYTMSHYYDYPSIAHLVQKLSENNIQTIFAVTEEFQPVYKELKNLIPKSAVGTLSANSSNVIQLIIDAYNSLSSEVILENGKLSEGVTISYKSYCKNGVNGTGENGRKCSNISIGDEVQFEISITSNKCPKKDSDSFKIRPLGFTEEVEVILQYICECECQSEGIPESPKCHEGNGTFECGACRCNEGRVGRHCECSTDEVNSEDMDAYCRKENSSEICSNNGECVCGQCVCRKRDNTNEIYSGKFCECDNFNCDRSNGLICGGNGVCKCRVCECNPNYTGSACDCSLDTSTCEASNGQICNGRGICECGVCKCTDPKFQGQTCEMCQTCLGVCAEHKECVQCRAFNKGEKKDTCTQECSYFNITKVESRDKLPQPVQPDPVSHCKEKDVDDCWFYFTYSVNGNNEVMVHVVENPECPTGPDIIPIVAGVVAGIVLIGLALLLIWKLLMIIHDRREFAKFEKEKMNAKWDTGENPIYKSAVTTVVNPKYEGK
T1 sequence (P13612 34-1032): as the sequence (P13612 34-1032) above
T1 sequence (P05556 21-798): as the sequence (P05556 21-798) above

Compound	IC50 [1]	IC50 [2]
Cc1cccc(Cl)c1C(=O)N[C@@H](Cc1ccc(-c2cc(Cl)cn(C)c2=O)cc1)C(=O)O [Example 8, N-[(2-chloro-6-methylphenyl)carbonyl]-4-(5-chloro-1-methyl-2-oxo-3-pyridinyl)-L-phenylalanine]	< 10000 nM	< 1 nM
COCCC1(C(=O)N[C@@H](Cc2ccc(-c3cc(Cl)cn(C)c3=O)cc2)C(=O)O)CCCC1 [Example 10, 4-(5-chloro-1-methyl-2-oxo-3-pyridinyl)-N-[[1-(2-methoxyethyl)cyclopentyl]carbonyl]-L-phenylalanine]	< 10000 nM	< 10 nM
Cc1cccc(Cl)c1C(=O)N[C@@H](Cc1ccc(-c2cc(Cl)cn(Cc3ccccc3)c2=O)cc1)C(=O)O [Example 15, 4-(1-Benzyl-5-chloro-2-oxo-3-pyridinyl)-N-[(2-chloro-6-methylphenyl)carbonyl]-L-phenylalanine]	< 5000 nM	< 10 nM

Continued, values first:

IC50 [1]	IC50 [2]	Compound
–	< 10 nM	COCCC1(C(=O)N[C@@H](Cc2ccc(-c3cc(Cl)cn(Cc4ccccc4)c3=O)cc2)C(=O)O)CCCC1 [Example 17, 4-(1-Benzyl-5-chloro-2-oxo-3-pyridinyl)-N-[[1-(2-methoxyethyl)cyclopentyl]carbonyl]-L-phenylalanine]
< 10000 nM	< 1 nM	COc1ccc(Br)c(C(=O)N[C@@H](Cc2ccc(-c3cccn(C)c3=O)cc2)C(=O)O)c1 [Example 24, N-[(2-bromo-5-methoxyphenyl)carbonyl]-4-(1-methyl-2-oxo-3-pyridinyl)-L-phenylalanine]
< 5000 nM	< 1 nM	COc1ccc(Br)c(C(=O)N[C@@H](Cc2ccc(-c3cc(Br)cn(C)c3=O)cc2)C(=O)O)c1 [Example 28, N-[(2-bromo-5-methoxyphenyl)carbonyl]-4-(5-bromo-1-methyl-2-oxo-3-pyridinyl)-L-phenylalanine]
